Results published in patent US6284910A, “Farnesyl pyrophosphate analogs” (University of Kentucky Research Foundation, priority 1999, dated 2001).
“Also recorded” adds a separate entry of the source.

Columns and labels:
[1] = biological target: T1, recombinant rat brain FTase (Rattus norvegicus, UniProt Q02293+Q04631); experiment: Inhibition of FTase-catalyzed transfer of [^3 H]farnesyl from [^3 H]FPP to H-Ras; assay type: biochemical
T1 construct: 6xHis (N); made in house; host or cells: Sf9 insect cells (baculovirus)
Procedure: FIG. 2. Differential Inhibition of Farnesyltransferase and CAAX Geranylgeranyltransferase by AGPP. The assay mixtures contained (in a final volume of 25 μl) various components as described in "Experimental Procedures". After incubation for 15 min at 37° C., the amount of [^3 H]prenyl group transferred to the appropriate protein substrate [H-Ras (CVLS) for FTase and H-Ras (CVLL) for CAAX GGTase] was measured by precipitation with ethanol-HCl. The assays contained 10 ng recombinant rat FTase, 5 μM H-Ras, and 0.6 μM [^3 H]FPP (33,000 dpm/pmol) or 100 ng recombinant rat CAAX GGTase, 5 μM H-Ras CVLL, and 1 μM [^3 H]GGPP (33,000 dpm/pmol) and the indicated concentration of unlabeled AGPP. The 100% of control values were 1.1 and 5.5 pmol of [^3 H]farnesyl or [^3 H]geranylgeranyl transferred per tube. Each value is the average of duplicate incubations and is representative of two separate experiments.
FIG. 3. Inhibition of Farnesyltransferase by AGPP and I-AGPP. The enzymatic activity was measured in the presence of the various concentrations of either AGPP or I-AGPP as described in […]. The 100% control values were 1.9 and 2 pmol. Each value is the average of duplicate incubations and is representative of three separate experiments.
(§1) Assay for Farnesyltransferase Activity--Farnesyltransferase activity was assayed by measuring the amount of [^3 H]farnesyl or [^3 H]anilinogeranyl transferred from [^3 H]FPP or [^3 H]AGPP to recombinant p21^H-ras, as described previously (31). Unless otherwise stated, each reaction mixture contained the following components in a final volume of 25 μl: 50 mM Tris (pH 7.4), 20 mM KCl, 0.2% octyl β-glucopyranoside, 1 mM dithiothreitol, 10-20 ng recombinant FTase, 5 μM p21^Ha-ras, 3 mM MgCl2, 50 μM ZnCl2, and 0.6 μM [^3 H]FPP (33,000 dpm/pmol; American Radiochemical Co.) or 0.1-5 μM [^3 H]AGPP (37,400 dpm/pmol). Following incubation for the indicated times at 37° C., the amount of [^3 H]prenyl transferred was measured by ethanol-HCl precipitation and filtration on glass fiber filters with modification as previously described (19). A blank value was determined in parallel incubation mixtures containing no enzyme. This blank value was subtracted from each reaction before calculating pmol [^3 H]prenyl transferred.
Inhibition of Farnesyltransferase by AGPP--AGPP was tested for its ability to inhibit recombinant rat brain FTase activity in vitro. AGPP inhibited FTase in a concentration dependent manner with an IC50 value of 0.6 μM (FIG. 2).
Kinetic analyses were carried out to investigate the mechanism of FTase inhibition by AGPP. […] The same Km value was observed when the Lineweaver-Burke plot was analyzed under different Ras and AGPP concentrations in the presence of a constant concentration of FPP. […] AGPP inhibition is reversible, since transfer of [^3 H]-FPP by FTase to Ras was restored by isolating the farnesyltransferase by gel filtration chromatography after preincubation in the presence of 50 μM AGPP (data not shown).
The assays contained 10 ng recombinant rat FTase, 5 μM H-Ras, and 0.6 μM [^3 H]FPP (33,000 dpm/pmol) or 100 ng recombinant rat CAAX GGTase, 5 μM H-Ras CVLL, and 1 μM [^3 H]GGPP (33,000 dpm/pmol) and the indicated concentration of unlabeled AGPP. The 100% of control values were 1.1 and 5.5 pmol of [^3 H]farnesyl or [^3 H]geranylgeranyl transferred per tube.

FTase = FTase (Rattus norvegicus, UniProt Q02293+Q04631); experiment: Inhibition of FTase-catalyzed transfer of [^3 H]AGPP to p21^H-ras; assay type: biochemical; parameters: H-Ras is only the protein substrate; conditions: non-radiolabeled compound, time and concentration dependent transfer
Procedure: as §1
The observed inhibition kinetics could be a manifestation of the ability of AGPP to act as an alternative substrate for FTase. To evaluate the potential of AGPP to serve as a substrate of FTase, [^3 H]-AGPP was prepared by a similar route as described above, incorporating tritium with a specific activity of 17 Ci/mmol (synthesis to be reported elsewhere). […] The incorporated radioactivity was detected as a band of the expected molecular weight of farnesylated p21^H-ras on SDS-polyacrylamide gels (FIG. 4A, inset). […] The concentration of [^3 H]AGPP that gave half-maximal reaction velocity was approximately 0.5 μM (FIG. 4B).

recombinant GGTase I = biological target: T2, recombinant GGTase I (Rattus norvegicus, UniProt P53610+Q04631); experiment: Inhibition of CAAX GGTase I transfer of [^3 H]geranylgeranyl from [^3 H]GGPP to H-Ras-CVLL; assay type: biochemical
T2 construct: 6xHis (N); made in house; host or cells: Sf9 insect cells (baculovirus)
Procedure: The assay mixtures contained (in a final volume of 25 μl) various components as described in "Experimental Procedures". After incubation for 15 min at 37° C., the amount of [^3 H]prenyl group transferred to the appropriate protein substrate [H-Ras (CVLS) for FTase and H-Ras (CVLL) for CAAX GGTase] was measured by precipitation with ethanol-HCl. The assays contained 10 ng recombinant rat FTase, 5 μM H-Ras, and 0.6 μM [^3 H]FPP (33,000 dpm/pmol) or 100 ng recombinant rat CAAX GGTase, 5 μM H-Ras CVLL, and 1 μM [^3 H]GGPP (33,000 dpm/pmol) and the indicated concentration of unlabeled AGPP. […] Each value is the average of duplicate incubations and is representative of two separate experiments.
Unless otherwise stated, each reaction contained the following components in a final volume of 25 μl: 50 mM Tris-HCl (pH 7.4), 5 mM dithiothreitol, 20 μM Zwittergent (3-14), 1 μM [^3 H]GGPP (33,000 dpm/pmol; American Radiochemical Co.), 5 μM p21^H-ras CVLL, 5 μM ZnCl2, 5 mM MgCl2, 100 ng recombinant CAAX GGTase-1, and the indicated amount of unlabeled AGPP. Following incubation at 37° C. for 15 min, the amount of [^3 H]geranylgeranyl transferred was measured by ethanol-HCl precipitation followed by filtration on glass fiber filters. A blank value was determined in parallel incubation mixtures containing no enzyme and was subtracted from each reaction.

Xenopus laevis oocytes = experiment: Xenopus laevis oocyte maturation assay (GVBD) with oncogenic H-Ras in mevinolin-treated oocytes; assay type: cell-based
Text: Recently, a novel methodology involving the microinjection of known amounts of Ras into Xenopus oocytes has been described (see references 24, 45, infra), thereby permitting a quantitative structure-function analysis of H-Ras farnesyl-group for signal transduction in vivo. The approach makes use of enzymatic methods to attach structurally related farnesyl analogs onto the prenylation site of H-Ras combined with microinjection procedures to study their in vivo function. Oocytes are naturally arrested at the G2-M boundary of the first meiotic cell division. (See reference 80, infra). When microinjected with oncogenic H-Ras, oocytes reenter the cell cycle, which is monitored by germinal vesicle breakdown (GVBD) by the appearance of a white spot in the animal hemisphere. GVBD is accompanied by activation of the mitogen-activated protein kinase (MAPK) cascade. (See 81, 82, infra). […] (See references 24, 45, infra). These biochemical effects are strictly dependent on in vivo farnesylation of the injected H-Ras protein since mutation of the CaaX prenylation motif, blocking isoprenoid biosynthesis, and inhibition of FTase in oocytes all suppress these activities. (See references 83-85, infra). Thus, the system provides a method to study the in vivo role of prenylation by analyzing the ability of FPP analogues to rescue H-Ras biological functions in isoprenoid-depleted oocytes. […] Oocytes were isolated from X. laevis females and allowed to recover overnight. (See 24, 45, infra).

## C/C(=C\COP(=O)(O)OP(=O)(O)O)CC/C=C(\C)CNc1ccccc1 [AGPP, (E,E)-8-Aniline-3,7-dimethyl-2,6-octadiene pyrophosphate]
[1]; 0.6 μM [^3 H]FPP, 5 μM H-Ras, 37° C., 15 min
  IC50: 0.6 µM
[1]; constant FPP, various Ras
  mechanism of FTase inhibition with respect to Ha-Ras protein: noncompetitive inhibitor with respect to Ha-Ras protein; also recorded: did not apparently affect the Km value for the substrate protein Ha-Ras
[1]; double reciprocal plots, various [^3 H]FPP, constant Ras
  mechanism of FTase inhibition with respect to FPP: competitive inhibitor of FTase with respect to FPP; also recorded: changed the Km value for FPP but does not alter the Vmax; also recorded: potent competitive inhibitor
[1]; gel filtration after preincubation with 50 μM AGPP
  reversibility of FTase inhibition: reversible
[1]; in vitro, unlabeled compound
  inhibition of FTase, in words: competed at essentially the same concentrations
FTase
  inhibition of transfer of [^3 H]AGPP to p21^H-ras, in words: found to inhibit
Recombinant GGTase I; 1 μM [^3 H]GGPP, 5 μM H-Ras CVLL, 37° C., 15 min
  IC50: 31 µM
Recombinant GGTase I; AGPP concentrations of greater than 100 μM, 15 min
  GGTase I activity remaining: approximately 20%
Recombinant GGTase I; FTase vs GGTase I
  selectivity: better inhibitor of FTase than GGTase I: 50 fold
Xenopus laevis oocytes; H-Ras and AGPP, mevinolin-treated oocytes, longer than for FPP
  additional time necessary to achieve 50% maturation versus FPP: 2 to 4 h
Xenopus laevis oocytes; co-microinjected with oncogenic H-Ras, 50 μM mevinolin-treated oocytes
  rescue of oncogenic H-Ras biological activity (oocyte maturation): rescues the biological activity of oncogenic H-Ras in isoprenoid depleted oocytes with delayed maturation kinetics relative to FPP; also recorded: rescues the ability of H-Ras to induce oocyte maturation in mevinolin-treated cells
Xenopus laevis oocytes; compound alone
  effect when given without H-Ras: neither FPP nor AGPP alone displayed any biological effect
